Measurements as given in patent publication US6479437B1, “Herbicidal mixture containing a 3-heterocyclyl-substituted benzoyl derivative” (priority 1998, dated 2002).

Legend:
Assay type in all cases: in vivo
Settings in all cases: adjuvant 0.25 and ENSOL 28 0.375 kg/ha where added, scale 0-100
[1] = system: SETVI (Setaria viridis, green foxtail); test: Selective herbicidal activity post-emergence in the greenhouse
Method: (§1) The culture containers used were plastic pots containing loamy sand with approximately 3.0% of humus as substrate. The seeds of the test plants were sown separately for each species.
(§2) For the post-emergence treatment, the test plants were grown to a plant height of from 3 to 15 cm, depending on the plant habit, and only then treated with the herbicidal mixture which had been suspended or emulsified in water. To this end, the test plants were either sown directly and grown in the same containers, or they were first grown separately as seedlings and transplanted into the test containers a few days prior to treatment.
(§3) Depending on the species, the plants were kept at 10-25° C. or 20-35° C. The test period extended over 2 to 4 weeks. During this time, the plants were tended, and their response to the individual treatments was evaluated.
(§4) Evaluation was carried out using a scale of from 0 to 100. 100 means no emergence of the plants, or complete destruction of at least the aerial parts, and 0 means no damage or normal course of growth.

[2] = system: CHEAL (Chenopodium album, lambsquarters); test: as above
Method: as §1, §2, §3, §4

[3] = system: ECHCG (Echinochloa crus-galli, barnyardgrass); test: as above
Method: as §1, §2, §3, §4

[4] = system: ABUTH (Abutilon theophrasti, velvetleaf); test: as above
Method: as §1, §2, §3, §4

[5] = system: POLPE (Polygonum persicaria, lady's thumb); test: as above
Method: as §1, §2, §3, §4

ZEAMX (Zea mays, corn) = test: Selective herbicidal activity post-emergence in the greenhouse (crop phytotoxicity)
Method: as §1, §2, §3, §4

[6] = Table 11, EX. 1 0.0078 kg/ha a.s.
[7] = Table 17, EX. 1 0.0078 kg/ha a.s.
[8] = Table 19, EX. 1 0.0078 kg/ha a.s.
[9] = Table 20, EX. 1 0.0078 kg/ha a.s.
[10] = Table 21, EX. 1 0.0078 kg/ha a.s.
[11] = Table 1, EX. 1 0.0078 kg/ha a.s.
[12] = Table 2, EX. 1 0.0625 kg/ha a.s.
[13] = Table 5, EX. 1 0.0312 kg/ha a.s.
[14] = Table 8, EX. 1 0.0625 kg/ha a.s.

SMILES: Cn1ncc(C(=O)c2ccc(S(C)(=O)=O)c(C3=NOCC3)c2Cl)c1O [EX. 1]
- Phytotoxicity SETVI [1, 6]: 30
- Phytotoxicity SETVI [1, 7]: 30
- Phytotoxicity SETVI [1, 8]: 40
- Phytotoxicity SETVI [1, 9]: 40
- Phytotoxicity SETVI [1, 10]: 40
- Phytotoxicity CHEAL [2, 11]: 20
- Phytotoxicity CHEAL [2, 12]: 50
- Phytotoxicity CHEAL ([2]; Table 6, EX. 1 0.0078 kg/ha a.s.): 20
- Phytotoxicity CHEAL ([2]; Table 7, EX. 1 0.0156 kg/ha a.s.): 20
- Phytotoxicity CHEAL ([2]; Table 10, EX. 1 0.0078 kg/ha a.s.): 20
- Phytotoxicity CHEAL [2, 6]: 20
- Phytotoxicity CHEAL ([2]; Table 12, EX. 1 0.0156 kg/ha a.s.): 20
- Phytotoxicity CHEAL ([2]; Table 13, EX. 1 0.0156 kg/ha a.s.): 20
- Phytotoxicity CHEAL ([2]; Table 14, EX. 1 0.0156 kg/ha a.s.): 20
- Phytotoxicity ECHCG ([3]; Table 3, EX. 1 0.0625 kg/ha a.s.): 50
- Phytotoxicity ECHCG [3, 13]: 030
- Phytotoxicity ECHCG [3, 14]: 50
- Phytotoxicity ECHCG ([3]; Table 9, EX. 1 0.0625 kg/ha a.s.): 50
- Phytotoxicity ECHCG ([3]; Table 15, EX. 1 0.0625 kg/ha a.s.): 50
- Phytotoxicity ABUTH ([4]; Table 4, EX. 1 0.0156 kg/ha a.s.): 20
- Phytotoxicity ABUTH [4, 13]: 75
- Phytotoxicity ABUTH ([4]; Table 16, EX. 1 0.0156 kg/ha a.s.): 20
- Phytotoxicity POLPE [5, 7]: 20
- Phytotoxicity POLPE ([5]; Table 18, EX. 1 0.0078 kg/ha a.s.): 70
- Phytotoxicity POLPE [5, 8]: 70
- Phytotoxicity POLPE [5, 10]: 70
- Phytotoxicity ZEAMX (ZEAMX (Zea mays, corn); [11]): 0
- Phytotoxicity ZEAMX (ZEAMX (Zea mays, corn); [12]): 0
- Phytotoxicity ZEAMX (ZEAMX (Zea mays, corn); [14]): 0
- Phytotoxicity ZEAMX (ZEAMX (Zea mays, corn); [9]): 0
